Data reported in ChEMBL document CHEMBL1221291, “Studies on the structure-activity relationship of 1,3,3,4-tetra-substituted pyrrolidine embodied CCR5 receptor antagonists. Part 2: Discovery of highly potent anti-HIV agents” (Bioorg Med Chem Lett, 2010).

What was measured:
[1] = target: C-C chemokine receptor type 5 (Homo sapiens, UniProt P51681); experiment: Inhibition of human CCR5 expressed in CHO cells assessed as inhibition of RANTES-stimulated [35S]GTPgammaS binding; type: functional, cell-based
C-C chemokine receptor type 5, sequence (P51681 whole entry): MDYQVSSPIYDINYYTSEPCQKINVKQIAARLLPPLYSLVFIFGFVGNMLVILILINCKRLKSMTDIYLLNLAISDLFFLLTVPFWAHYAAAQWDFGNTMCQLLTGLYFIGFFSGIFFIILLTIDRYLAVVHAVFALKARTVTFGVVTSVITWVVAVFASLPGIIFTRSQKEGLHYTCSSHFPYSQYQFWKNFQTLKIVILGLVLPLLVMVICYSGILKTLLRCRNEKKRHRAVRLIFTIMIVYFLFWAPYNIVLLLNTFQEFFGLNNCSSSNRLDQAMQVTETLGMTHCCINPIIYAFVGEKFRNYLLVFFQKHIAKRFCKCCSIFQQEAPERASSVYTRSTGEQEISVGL

[2] = test system: Human immunodeficiency virus 1; experiment: Antiviral activity against R5 tropic HIV1 BaL infected in human PBMC; type: functional, organism-based; conditions: Human immunodeficiency virus 1, BaL
[3] = Cytotoxicity against human PBMC; type: cell-based
[4] = target: hERG (KCNH2) (Homo sapiens, UniProt Q12809); experiment: Inhibition of human ERG at 1 uM
hERG (KCNH2), sequence (Q12809 whole entry): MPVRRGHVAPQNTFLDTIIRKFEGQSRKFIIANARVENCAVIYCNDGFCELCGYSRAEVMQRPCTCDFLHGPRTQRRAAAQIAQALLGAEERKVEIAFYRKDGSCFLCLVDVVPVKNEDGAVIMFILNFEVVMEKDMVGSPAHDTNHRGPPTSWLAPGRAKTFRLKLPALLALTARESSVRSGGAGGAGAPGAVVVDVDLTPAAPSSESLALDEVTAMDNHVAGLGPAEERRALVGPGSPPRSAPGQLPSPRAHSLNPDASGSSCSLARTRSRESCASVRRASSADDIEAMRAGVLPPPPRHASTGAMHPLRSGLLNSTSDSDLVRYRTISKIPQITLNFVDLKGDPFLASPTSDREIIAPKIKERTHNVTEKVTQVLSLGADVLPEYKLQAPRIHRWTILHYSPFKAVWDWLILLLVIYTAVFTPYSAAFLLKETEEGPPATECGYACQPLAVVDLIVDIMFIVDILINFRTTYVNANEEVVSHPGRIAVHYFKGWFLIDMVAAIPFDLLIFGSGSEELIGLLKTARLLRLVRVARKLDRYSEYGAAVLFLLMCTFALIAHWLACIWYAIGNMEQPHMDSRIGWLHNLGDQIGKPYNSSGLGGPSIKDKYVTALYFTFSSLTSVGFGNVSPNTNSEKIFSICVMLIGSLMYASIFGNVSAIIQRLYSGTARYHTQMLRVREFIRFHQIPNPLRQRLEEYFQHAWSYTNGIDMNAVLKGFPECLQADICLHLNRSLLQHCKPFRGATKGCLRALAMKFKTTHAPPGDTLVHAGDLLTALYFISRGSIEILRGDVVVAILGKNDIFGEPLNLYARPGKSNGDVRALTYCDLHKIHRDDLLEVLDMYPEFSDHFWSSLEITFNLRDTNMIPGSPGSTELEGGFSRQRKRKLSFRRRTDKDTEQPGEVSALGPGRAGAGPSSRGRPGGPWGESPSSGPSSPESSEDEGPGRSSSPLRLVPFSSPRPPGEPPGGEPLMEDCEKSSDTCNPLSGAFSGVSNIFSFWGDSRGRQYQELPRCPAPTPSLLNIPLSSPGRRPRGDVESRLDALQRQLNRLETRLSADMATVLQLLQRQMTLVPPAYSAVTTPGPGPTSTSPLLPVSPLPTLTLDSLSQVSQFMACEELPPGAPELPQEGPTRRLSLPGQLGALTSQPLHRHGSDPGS

Row | SMILES | IC50 [1] [nM] | EC50 [2] [nM] | CC50 [3] [nM] | inhibition at 1 µM [4] [%]
1 | C=CCN(C(=O)NCc1ccc(C(F)(F)F)cc1)C1CCN(C[C@H]2CN(C(=O)C3CCCC3)C[C@]2(O)c2ccc(F)cc2)CC1 | 38.3 | 20 |  | 
2 | C=CCN(C(=O)NCc1ccc(C(F)(F)F)cc1)[C@H]1C[C@H]2CC[C@@H](C1)N2C[C@H]1CN(C(=O)C2CCCC2)C[C@]1(O)c1cccc(F)c1 | 6.77 | < 0.005 | 12500 | 89.5
3 | C=CCN(C(=O)NCc1ccc(S(=O)(=O)N(C)C)cc1)[C@H]1C[C@H]2CC[C@@H](C1)N2C[C@H]1CN(C(=O)C2CCCC2)C[C@]1(O)c1cccc(F)c1 | 11.4 | 0.0055 | 55000 | 31.3
4 | C=CCN(C(=O)NCc1ccc(F)cc1)[C@H]1C[C@H]2CC[C@@H](C1)N2C[C@H]1CN(C(=O)C2CCCC2)C[C@]1(O)c1cccc(F)c1 | 30 | 1.75 | 42000 | 
5 | C=CCN(C(=O)NCc1ccc(C(F)(F)F)cc1)[C@@H]1C[C@H]2CC[C@@H](C1)N2C[C@H]1CN(C(=O)C2CCCC2)C[C@]1(O)c1cccc(F)c1 | 14.3 | > 100 | 103000 | 88.6

The next lines start with results.

Row | IC50 [1] [nM] | EC50 [2] [nM] | SMILES | CC50 [3] [nM] | inhibition at 1 µM [4] [%]
6 | 318 | > 100 | C=CCN(C(=O)OCc1ccc([N+](=O)[O-])cc1)C1CCN(C[C@H]2CN(C(=O)C3CCCC3)C[C@]2(O)c2ccc(OC)cc2)CC1 |  | 
7 | 30 | > 100 | C=CCN(C(=O)OCc1ccc([N+](=O)[O-])cc1)C1CCN(C[C@H]2CN(C(=O)C3CCCC3)C[C@]2(O)c2ccc(F)cc2)CC1 |  | 
8 | 8.85 | < 0.4 | C=CCN(C(=O)OCc1ccc([N+](=O)[O-])cc1)C1CCN(C[C@H]2CN(C(=O)C3CCCC3)C[C@]2(O)c2cccc(F)c2)CC1 |  | 
9 | 1.38 | 6 | C=CCN(C(=O)NCc1ccc(C(F)(F)F)cc1)C1CCN(C[C@H]2CN(C(=O)C3CCCC3)C[C@]2(O)c2cccc(F)c2)CC1 |  | 
10 | 11.2 | > 100 | C=CCN(C(=O)Cc1ccc(S(=O)(=O)NC)cc1)C1CCN(C[C@H]2CN(C(=O)C3CCCC3)C[C@]2(O)c2ccc(F)cc2)CC1 |  | 
11 | 2.98 | 4.5 | C=CCN(C(=O)Cc1ccc(S(=O)(=O)NC)cc1)C1CCN(C[C@H]2CN(C(=O)C3CCCC3)C[C@]2(O)c2cccc(F)c2)CC1 |  | 
12 |  | < 0.4 | C=CCN(C(=O)OCc1ccc([N+](=O)[O-])cc1)C1CCN(C[C@H]2CN(C(=O)C3CCCC3)C[C@]2(O)c2ccccc2)CC1 [NIFEVIROC] |  | 
